What follows are molecules tested against T1, α1A-adrenoceptor (Rattus norvegicus, UniProt P43140) (assay: Receptor binding assay, [3H]prazosin, rat submaxillary membranes). Settings: rat submaxillary membranes, 0.5 nM [3H]prazosin; read-out: RBA (Ki nM) α1A.
T1 construct: from tissue; host or cells: rat submaxillary gland membranes
T1 sequence (P43140 1-466): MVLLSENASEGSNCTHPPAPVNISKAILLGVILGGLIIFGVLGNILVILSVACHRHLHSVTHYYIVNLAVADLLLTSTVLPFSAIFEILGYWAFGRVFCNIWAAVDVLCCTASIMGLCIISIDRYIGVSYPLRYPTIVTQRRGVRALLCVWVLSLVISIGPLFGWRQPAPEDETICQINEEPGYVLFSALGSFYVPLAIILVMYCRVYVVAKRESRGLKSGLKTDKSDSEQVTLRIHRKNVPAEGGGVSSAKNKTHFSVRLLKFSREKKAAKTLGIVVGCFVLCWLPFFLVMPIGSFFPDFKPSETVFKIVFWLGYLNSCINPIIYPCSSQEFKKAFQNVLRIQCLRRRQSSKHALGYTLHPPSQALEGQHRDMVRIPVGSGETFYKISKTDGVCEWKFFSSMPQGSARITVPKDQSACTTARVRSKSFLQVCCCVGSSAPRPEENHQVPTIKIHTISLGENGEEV
Description: (§1) Receptor binding assays, (RBA's) were performed for native α1-adrenoceptors. Rat submaxillary and rat liver membrane preparations were used to assess the affinity for α1A and α1B subtypes, respectively. Aliquots of membrane protein ([…]) were incubated in a final volume of […] assay buffer (50 mM Tris, 0.5 mM EDTA at pH 7.4) with 0.5 nM [^3H] prazosin for 60 mins at 28 ° C. Reaction was stopped by rapid filtration on Millipore filters. Filters were dried and bound radioactivity counted. Non-specific binding was determined in the presence of 0.3 mM prazosin.

In order of falling Ki:
1. COc1ccccc1N1CCN(CCCN2C(=O)CCC2=O)CC1 [Compound 2, 1-[4-(2-Methoxyphenyl)piperazin-1-yl]3-(2,5-dioxopyrrolidin-1-yl)propane]  19 nM
2. COc1ccccc1N1CCN(CCCN2C(=O)CCCC2=O)CC1 [Compound 13, 1-[4-(2-Methoxyphenyl)piperazin-1-yl]-3-(2,6-dioxopiperidin-1-yl)propane]  3 nM
3. COc1ccccc1N1CCN(CCCCN2C(=O)CCC2=O)CC1 [Compound 9, 1-[4-(2-Methoxyphenyl)piperazin-1-yl]-4-(2,5-dioxopyrrolidin-1-yl)butane]  1 nM

The molecules below were run against T2, H1 receptor (Cavia porcellus, UniProt P31389) (assay: Receptor selectivity, guinea pig trachea). Settings: read-out: pKB H1-Histaminergic (converted).
T2 construct: guinea pig trachea was used to study H1 receptor antagonistic activity; from tissue; host or cells: guinea pig trachea
T2 sequence (P31389 whole entry): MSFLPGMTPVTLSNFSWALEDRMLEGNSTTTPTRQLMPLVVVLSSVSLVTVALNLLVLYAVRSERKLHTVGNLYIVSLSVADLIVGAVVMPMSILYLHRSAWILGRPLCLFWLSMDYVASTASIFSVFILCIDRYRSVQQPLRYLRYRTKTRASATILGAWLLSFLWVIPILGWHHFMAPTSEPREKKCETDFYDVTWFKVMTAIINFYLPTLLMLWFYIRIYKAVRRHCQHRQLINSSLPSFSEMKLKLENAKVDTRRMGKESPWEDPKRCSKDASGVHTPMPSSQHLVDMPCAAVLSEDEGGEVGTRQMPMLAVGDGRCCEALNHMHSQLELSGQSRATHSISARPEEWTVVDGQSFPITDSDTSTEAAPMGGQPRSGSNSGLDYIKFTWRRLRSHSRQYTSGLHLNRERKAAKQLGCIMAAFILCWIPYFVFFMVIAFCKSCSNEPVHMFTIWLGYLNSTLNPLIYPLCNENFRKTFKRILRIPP
Assay type: cell-based
Description: (§2) Selectivity of action of the present compounds was tested against a range of different receptors, e.g., β1- and α2-adrenergic, muscarinic cholinergic, serotoninergic (5-HT2A), histaminergic (H1), angiotensin II, endothelin (ETA and B,), as well as calcium and potassium channels. Rat aorta was used to study the effect of the compounds on 5-HT2A, ETA, calcium and potassium channels. Angiotensin II receptor antagonistic activity was studied in rabbit aorta. Muscarinic cholinergic receptor and ETB receptor antagonistic activity was studied in rat trachea, while guinea pig trachea was used to study H1 receptor antagonistic activity. Electrically stimulated rat vas deferens was used to investigate the effect of α2-adrenoceptors, while β1-adrenoceptor antagonistic activity was studied using electrically stimulated rat ventricular strips. Results of this selectivity study is shown in (Table 2).

In order of rising Kb:
1. COc1ccccc1N1CCN(CCCN2C(=O)CCCC2=O)CC1 [Compound 13, 1-[4-(2-Methoxyphenyl)piperazin-1-yl]-3-(2,6-dioxopiperidin-1-yl)propane]  2000 nM
2. COc1ccccc1N1CCN(CCCCN2C(=O)CCC2=O)CC1 [Compound 9, 1-[4-(2-Methoxyphenyl)piperazin-1-yl]-4-(2,5-dioxopyrrolidin-1-yl)butane]  3980 nM
3. COc1ccccc1N1CCN(CCCN2C(=O)CCC2=O)CC1 [Compound 2, 1-[4-(2-Methoxyphenyl)piperazin-1-yl]3-(2,5-dioxopyrrolidin-1-yl)propane]  5010 nM

What follows are molecules tested against T3, 5-HT2A (Rattus norvegicus, UniProt P14842) (assay: Receptor selectivity, rat aorta). Settings: read-out: pKB 5-HT2A (converted).
T3 construct: from tissue; host or cells: rat aorta
T3 sequence (P14842 whole entry): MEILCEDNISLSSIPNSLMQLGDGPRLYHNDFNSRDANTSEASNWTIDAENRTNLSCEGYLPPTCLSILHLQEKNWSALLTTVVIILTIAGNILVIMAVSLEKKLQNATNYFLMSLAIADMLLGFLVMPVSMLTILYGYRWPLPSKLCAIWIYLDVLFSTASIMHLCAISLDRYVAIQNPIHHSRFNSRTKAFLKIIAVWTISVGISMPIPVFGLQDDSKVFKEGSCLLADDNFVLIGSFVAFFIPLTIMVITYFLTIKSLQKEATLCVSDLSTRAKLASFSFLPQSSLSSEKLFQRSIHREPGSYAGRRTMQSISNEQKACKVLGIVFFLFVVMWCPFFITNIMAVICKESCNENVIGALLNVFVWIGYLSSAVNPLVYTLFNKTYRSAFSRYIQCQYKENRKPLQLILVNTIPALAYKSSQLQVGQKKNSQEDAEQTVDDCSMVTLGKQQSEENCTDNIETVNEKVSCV
Assay type: cell-based
Description: as §2

In order of rising Kb:
1. COc1ccccc1N1CCN(CCCN2C(=O)CCCC2=O)CC1 [Compound 13, 1-[4-(2-Methoxyphenyl)piperazin-1-yl]-3-(2,6-dioxopiperidin-1-yl)propane]  10 nM
2. COc1ccccc1N1CCN(CCCCN2C(=O)CCC2=O)CC1 [Compound 9, 1-[4-(2-Methoxyphenyl)piperazin-1-yl]-4-(2,5-dioxopyrrolidin-1-yl)butane]  12.6 nM
3. COc1ccccc1N1CCN(CCCN2C(=O)CCC2=O)CC1 [Compound 2, 1-[4-(2-Methoxyphenyl)piperazin-1-yl]3-(2,5-dioxopyrrolidin-1-yl)propane]  25.1 nM

These molecules were tested against T4, α1B-adrenoceptor (Rattus norvegicus, UniProt P15823) (assay: Receptor binding assay, [3H]prazosin, rat liver membranes). Settings: rat liver membranes, 0.5 nM [3H]prazosin; read-out: RBA (Ki nM) α1B.
T4 construct: from tissue; host or cells: rat liver membranes
T4 sequence (P15823 1-515): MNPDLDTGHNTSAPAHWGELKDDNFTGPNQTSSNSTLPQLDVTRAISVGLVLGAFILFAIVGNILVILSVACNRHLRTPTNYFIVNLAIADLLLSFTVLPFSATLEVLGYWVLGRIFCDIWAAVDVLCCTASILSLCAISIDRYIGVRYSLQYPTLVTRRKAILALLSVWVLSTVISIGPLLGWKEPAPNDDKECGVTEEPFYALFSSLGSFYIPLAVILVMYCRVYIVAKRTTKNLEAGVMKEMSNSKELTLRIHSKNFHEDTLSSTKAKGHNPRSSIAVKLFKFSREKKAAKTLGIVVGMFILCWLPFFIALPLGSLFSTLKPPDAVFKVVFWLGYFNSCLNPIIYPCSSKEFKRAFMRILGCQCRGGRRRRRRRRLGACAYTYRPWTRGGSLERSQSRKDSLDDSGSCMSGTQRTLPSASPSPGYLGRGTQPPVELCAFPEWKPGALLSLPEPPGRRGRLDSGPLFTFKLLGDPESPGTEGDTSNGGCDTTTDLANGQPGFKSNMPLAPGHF
Description: as §1

In order of rising Ki:
1. COc1ccccc1N1CCN(CCCCN2C(=O)CCC2=O)CC1 [Compound 9, 1-[4-(2-Methoxyphenyl)piperazin-1-yl]-4-(2,5-dioxopyrrolidin-1-yl)butane]  35 nM
2. COc1ccccc1N1CCN(CCCN2C(=O)CCCC2=O)CC1 [Compound 13, 1-[4-(2-Methoxyphenyl)piperazin-1-yl]-3-(2,6-dioxopiperidin-1-yl)propane]  168 nM
3. COc1ccccc1N1CCN(CCCN2C(=O)CCC2=O)CC1 [Compound 2, 1-[4-(2-Methoxyphenyl)piperazin-1-yl]3-(2,5-dioxopyrrolidin-1-yl)propane]  244 nM

What follows are molecules tested against T5, α1B-adrenoceptor (spleen) (Rattus norvegicus, UniProt P15823) (assay: In vitro functional assay, phenylephrine-induced contraction of isolated spleen). Settings: rat spleen, phenylephrine; read-out: In Vitro Functional Assay (pKB) α1B (converted).
T5 construct: Aorta, prostate and spleen tissues were isolated from urethane anaesthetized (1.5 gm/kg) male wistar rats; from tissue; host or cells: isolated spleen of male Wistar rats
T5 sequence (P15823 1-515): T4 sequence (P15823 1-515)
Assay type: cell-based
Text: In order to study selectivity of action of the present compounds towards different α-adrenoceptor subtypes, the ability of these compounds to antagonize α1-adrenoceptor agonist induced contractile response of aorta (α1D), prostate (α1A) and spleen (α1B) was studied. Aorta, prostate and spleen tissues were isolated from urethane anaesthetized (1.5 gm/kg) male wistar rats. Isolated tissues were mounted in organ bath containing Krebs Henseleit buffer of the following composition (mM): NaCl 118; KCl 4.7; CaCl2 2.5; MgSO4·H2O 1.2; NaHCO3 25; KH2PO4 1.2; glucose 11.5. Buffer was maintained at 37° C. and aerated with a mixture of 95% O2 and 5% CO2. A resting tension of 2 g (aorta) or 1 g (spleen and prostate) was applied to tissues. Contractile response was monitored using a force displacement transducer and recorded on chart recorders. Tissues were allowed to equilibrate for 2 hours. At the end of equilibration period, concentration response curves to norepinephrine (aorta) and phenylephrine (spleen and prostate) were obtained in the absence and presence of the tested compound (at concentrations of 0.1, 1 and 10 μM). Antagonist affinity was calculated and expressed as PKB values in Table 1.

In order of rising Kb:
1. COc1ccccc1N1CCN(CCCCN2C(=O)CCC2=O)CC1 [Compound 9, 1-[4-(2-Methoxyphenyl)piperazin-1-yl]-4-(2,5-dioxopyrrolidin-1-yl)butane]  10 nM
2. COc1ccccc1N1CCN(CCCN2C(=O)CCCC2=O)CC1 [Compound 13, 1-[4-(2-Methoxyphenyl)piperazin-1-yl]-3-(2,6-dioxopiperidin-1-yl)propane]  10 nM
3. COc1ccccc1N1CCN(CCCN2C(=O)CCC2=O)CC1 [Compound 2, 1-[4-(2-Methoxyphenyl)piperazin-1-yl]3-(2,5-dioxopyrrolidin-1-yl)propane]  25.1 nM

Each molecule was assayed on anaesthetized dogs (blood pressure) (assay: In vivo selectivity study, phenylephrine response on blood pressure in anaesthetized dogs). Settings: Canis lupus familiaris, iv 0.01-0.3 mg/kg, against phenylephrine, read-out: pseudo pKB Blood Pressure (converted).
Design: species or system dog
Description: Male mongrel dogs (12-20 Kg) were anaesthetized with pentobarbitone sodium (35 mg/kg, iv). Trachea was intubated for artificial respiration. Femoral artery and femoral vein were cannulated for recording blood pressure and for administration of drug solutions, respectively. Blood pressure was recorded on a polygraph through a pressure transducer. A paramedian incision was made lateral to the penis and the bladder was exposed. Urine was drained through a cannula put directly into the bladder and it was guided into the urethra gently and was placed at the prostatic urethra. Balloon was inflated with 2 cc air and its placement was confirmed by digital pressure. Intraurethral pressure was recorded on the polygraph through a pressure transducer. Graded dose response relationship of phenylephrine (1-16 μg/kg, iv) was obtained on prostatic pressure and blood pressure, prior to administration of the compounds of the present invention. Compounds 2, 9, and 13 (at dosages of 0.01, 0.03, 0.1, and 0.3 mg/kg) were administered intravenously 10 min before obtaining phenylephrine dose response curves. Results were analyzed and pseudo PKB values were calculated as described in Kenny et al (1996).

In order of falling Kb:
1. COc1ccccc1N1CCN(CCCN2C(=O)CCC2=O)CC1 [Compound 2, 1-[4-(2-Methoxyphenyl)piperazin-1-yl]3-(2,5-dioxopyrrolidin-1-yl)propane]  126 nM
2. COc1ccccc1N1CCN(CCCN2C(=O)CCCC2=O)CC1 [Compound 13, 1-[4-(2-Methoxyphenyl)piperazin-1-yl]-3-(2,6-dioxopiperidin-1-yl)propane]  79.4 nM
3. COc1ccccc1N1CCN(CCCCN2C(=O)CCC2=O)CC1 [Compound 9, 1-[4-(2-Methoxyphenyl)piperazin-1-yl]-4-(2,5-dioxopyrrolidin-1-yl)butane]  39.8 nM
